Entries after “also recorded” stand apart in the source; their conditions may differ. No end group written: not given here.
What was measured:
H2B = experiment: FLAG pull-down, COMMD4-FLAG versus A70K mutant with H2B; assay type: binding; details: compared to COMMD4-FLAG
Protocol: (§1) For siRNA transfections, cells were transfected with negative control or COMMD4 siRNA #2 (CCAUGUCCCUCUCAGCAGA[dT][dT] MISSION® siRNA, Sigma-Aldrich) using RNAiMax (Life Technologies) as previously described and samples were analysed 48 to 72 h post-transfection. The H2B wild-type (FLAG-H2BWT) and mutant (FLAG-H2BMUT1) expression constructs were generated with the 10-amino acid peptide and the corresponding mutant cloned into the expression vector pCDNA3.1/(+)-N-DYK containing an N-terminal FLAG tag and a C-terminal nuclear localisation signal (AAKRVKLDS) (GenScript). A70K FLAG-COMMD4 expression construct was generated by mutating the corresponding COMMD4-FLAG construct to harbour an A70K mutation (GenScript). Cells were mock-transfected, or transfected with FLAG-H2BWT/FLAG-H2BMUT1, or COMMD4-FLAG/A70K with FuGENE® HD (Promega) using the manufacturer’s protocol and analysed 24 h post-transfection.
Co-immunoprecipitations were performed as previously summarised, using ice-cold NP40 buffer. Assays for co-immunoprecipitations were performed at 4 °C from HEK293T, transiently expressing the FLAG-H2B WT or MUT plasmid. Proteins were captured using anti-FLAG M2 Dynabeads (ThermoFisher) and washed three times in NP40 buffer prior to analysis. […]

HBEC3-KT cells [1] = experiment: Annexin V-FITC / propidium iodide apoptosis, HBEC3-KT cells; assay type: cell-based, Human; details: flow cytometry, three independent experiments
Protocol: as §1, with “A70K FLAG-COMMD4 expression construct was generated by mutating the corresponding COMMD4-FLAG construct to harbour an A70K mutation (GenScript).” left out
The Annexin V-FITC apoptosis kit (United Bioresearch, ALX-850-020-K101, Enzo Life Sciences, Farmingdale, NY, USA) was used to measure viable and apoptotic cells, as previously described. […] CytExpert 2.0 software was used for data acquisition and analysed using the FlowJo v10 software.
Fig. 5 Induction of mitotic catastrophe and apoptosis in NSCLC cells. a Emerin and phalloidin staining respectively in three NSCLC and control HBEC3-KT cells. […] Asterix (*) denotes *P < 0.05 and ** P < 0.005 from 100 cells counted. […] The live cells were stained with Annexin V-FITC and propidium iodide and analysed by flow cytometer. […]

NSCLC cells = experiment: Immunofluorescence γH2AX and MDC1 foci, NSCLC cells; assay type: cell-based; details: 6 Gy IR, 0.5 to 2 h post-IR, 50 cells per condition, three independent experiments
Protocol: as §1
NSCLC and control cells transfected with siRNA or H2B plasmids were grown in optical glass bottom 96-well plates (Cellvis). Post-treatment, cells were pre-extracted with ice-cold extraction buffer (20 mM HEPES (pH 8), 20 mM NaCl, 5 mM MgCl2, 1 mM ATP, 0.5% NP40), to remove the soluble proteins and processed as previous. Images were captured using a Delta Vision PDV microscope 100x/1.42 Oil objective (Applied Precision, Inc). All immunofluorescence figures were assembled using Adobe Photoshop. High-content microscopy was performed using the InCell Analyzer 6500 Imaging System (GE Healthcare Life Sciences). Images were analysed using the InCarta Image Analysis software (GE Healthcare Life Sciences) where a minimum of 50 nuclei were quantified per experiment.
Fig. 4 Induction of DSBs in NSCLC and control cells. a Immunofluorescence staining of H1299 NSCLC cells transfected with control or COMMD4 siRNA #2 and FLAG-H2BWT or FLAG-H2BMUT1 is shown. […]
independent experiments where 50 cells were quantified per condition. γH2AX is shown in […]
mean ± SD from three independent experiments where 50 cells were quantified per condition.

COMMD4-H2B interaction = experiment: COMMD4 pull-down competition (COMMD4-H2B interaction); assay type: biochemical; details: 1 μg (or amount specified) peptide pre-incubated with recombinant COMMD4 (300 ng) 30 min 4 °C, then 1 μg recombinant H2B 30 min 4 °C, immunoblot
Protocol: 300 ng of recombinant GST-COMMD4 (Abnova, H00054939-P01) was incubated with 1 μg of recombinant H2B (NEB, M2505S) in NP40 buffer for 30 min at 4 °C. For competition experiments, 1 μg (or the amount specified) of the N-terminal biotin-tagged H2B peptide (GenScript) was pre-incubated with recombinant COMMD4 for 30 min at 4 °C prior to addition of recombinant H2B. Proteins were captured using Streptavidin Dynabeads (ThermoFisher) or Protein A Dynabeads (ThermoFisher), washed three times in NP40 buffer, resuspended in 4X Leammli sample buffer (250 mM Tris pH 6.8, 8% SDS, […], 0.02% bromophenol blue, 8% β-mercaptoethanol) and immunoblotted with the indicated antibodies.
Fig. 2 In vitro binding of the H2B peptide. a In vitro binding of biotin-tagged H2B 10-amino acid peptide (H2BWTpep) and H2BMUT1pep (mutation of key amino acid) with COMMD4. […] FLAG-H2BWT and FLAG-H2BMUT1 were immunoprecipitated from HEK293T cells and the co-eluting proteins were immunoblotted with antibodies against […] and FLAG.

[2] = Circular dichroism (CD) of H2B peptides; assay type: physicochemical; details: 0.1 mg/ml peptide, 50% TFE, 10 mM phosphate pH 7.2, 50 mM sodium fluoride, 20 °C, average of five scans
Protocol: For Circular Dichroism (CD), […] and H2BMUT1 peptides were resuspended at a concentration of 0.1 mg/ml in 50% 2,2,2-Trifluoroethanol (Sigma, T63002) with 10 mM Phosphate Buffer pH 7.2 and 50 mM sodium fluoride. The buffer solutions were filtered and degassed before diluting the peptides. The peptides were loaded into a 1 mm path-length quartz cuvette. CD spectra were measured at 20 °C in the far-UV from 250 to 190 nm with a Jasco J-1500 spectropolarimeter at a 0.1 nm interval with a 20 nm/min scan rate. All CD data represent an average of five scans, and the background was corrected with the buffer-matched diluent. The results were converted to the units of molar ellipticity vs. wavelength.

HBEC3-KT cells [3] = experiment: Immunofluorescence γH2AX and MDC1 foci, HBEC3-KT cells; assay type: cell-based, Human; details: 6 Gy IR, 50 cells per condition, three independent experiments
Protocol: as §1
NSCLC and control cells transfected with siRNA or H2B plasmids were grown in optical glass bottom 96-well plates (Cellvis). Post-treatment, cells were pre-extracted with ice-cold extraction buffer (20 mM HEPES (pH 8), 20 mM NaCl, 5 mM MgCl2, 1 mM ATP, 0.5% NP40), to remove the soluble proteins and processed as previous. […] Images were analysed using the InCarta Image Analysis software (GE Healthcare Life Sciences) where a minimum of 50 nuclei were quantified per experiment. […]

[4] = system: H460, H1299 and CRL5889 NSCLC cells; experiment: Clonogenic cell viability after IR, NSCLC cells; assay type: cell-based; details: varying IR doses, 7–10 days recovery, three independent experiments, compared to control siRNA or FLAG-H2BMUT1/mock
Protocol: (§2) H1299, CRL5889 and H460 cells were cultured in Roswell Park Memorial Institute (RPMI) 1640 medium (Life Technologies) containing 10% foetal bovine serum (Thermo Fisher Scientific). Human bronchial epithelial cells (HBEC3-KT) were maintained in keratinocyte serum-free medium supplemented with epidermal growth factor and bovine pituitary extract (Life Technologies). The histology features and origin of all cell lines used have been previously described. Cell lines were authenticated using STR profiling. Cells were grown in a humidified incubator at 37 °C/5% CO2 atmosphere. All cell lines were verified to be free of mycoplasma contamination.
(§3) Irradiations were done at room temperature using a ^137Cs source (Gammacell 40 Exactor [MDS Nordion]; dose rate 1.1 Gy/min). Phalloidin-Atto 488 was purchased from Sigma-Aldrich and Hoechst 33342 was purchased from Thermo Fisher Scientific.
(§4) For siRNA transfections, cells were transfected with negative control or COMMD4 siRNA #2 (CCAUGUCCCUCUCAGCAGA[dT][dT] MISSION® siRNA, Sigma-Aldrich) using RNAiMax (Life Technologies) as previously described and samples were analysed 48 to 72 h post-transfection. […] Cells were mock-transfected, or transfected with FLAG-H2BWT/FLAG-H2BMUT1, or COMMD4-FLAG/A70K with FuGENE® HD (Promega) using the manufacturer’s protocol and analysed 24 h post-transfection. […]

HBEC3-KT cells [5] = experiment: Clonogenic cell viability after IR, HBEC3-KT cells; assay type: cell-based, Human; details: varying IR doses, 7–10 days recovery, three independent experiments
Protocol: as §2, §3, §4

recombinant GST-COMMD4 = biological target: T1, recombinant GST-COMMD4 (Homo sapiens, UniProt Q9H0A8); experiment: ELISA, binding of H2B peptide and recombinant COMMD4; details: H2B peptide 10 μg/ml on NeutrAvidin plate 2 h; recombinant GST-COMMD4 at different concentrations 45 min, room temperature; anti-COMMD4 antibody, chemiluminescent substrate
T1 construct: purchased Abnova H00054939-P01
T1 sequence (Q9H0A8 whole entry): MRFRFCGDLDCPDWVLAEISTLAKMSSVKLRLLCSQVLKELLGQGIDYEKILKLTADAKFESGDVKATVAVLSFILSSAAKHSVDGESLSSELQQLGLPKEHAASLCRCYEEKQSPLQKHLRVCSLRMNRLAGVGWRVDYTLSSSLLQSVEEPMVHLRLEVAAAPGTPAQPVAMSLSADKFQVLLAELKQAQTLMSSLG
Protocol: ELISA was performed using NeutrAvidin High Binding Capacity Coated 96-Well Plates (Thermo Scientific, 15507) according to the manufacturer’s instructions. Briefly, to the appropriate well, added 100 μl of H2B peptide at 10 μg/ml for 2 h at room temperature. Washed each well three times with NP40 buffer, blocked the plate overnight with 4% BSA in NP40 buffer and the next day added different concentrations of recombinant GST-COMMD4 as shown, for 45 min at room temperature. Washed each well three times with NP40 buffer and added anti-COMMD4 antibody for 45 min at room temperature followed by the enzyme-linked secondary antibody for 30 min at room temperature followed by detection using SuperSignal ELISA Pico Chemiluminescent Substrate (Thermo Scientific, 37070).

Substance: A70K COMMD4-FLAG: COMMD4-FLAG construct mutated to harbour an A70K mutation
- binding with H2B of COMMD4 mutant (H2B): showed reduced binding with H2B

Substance: FLAG-H2BMUT1: corresponding mutant cloned into expression vector containing an N-terminal FLAG tag and a C-terminal nuclear localisation signal ({FLAG}-SFVNDKFERIAAKRVKLDS)
- induction of apoptosis (HBEC3-KT cells [1]): no significant induction of apoptosis
- γH2AX and MDC1 (DNA repair) foci (NSCLC cells): not FLAG-H2BMUT1, displayed a similar phenotype to COMMD4 siRNA depleted cells and had significantly more DNA repair foci

Substance: SFVNDKFERI [H2BMUT1pep]
- effect on COMMD4-H2B interaction (COMMD4-H2B interaction): did not affect the COMMD4-H2B interaction; also recorded: maintains the COMMD4-H2B interaction
- peak ellipticity maximum ([2]; 1 mm path length): 190 nm
- peak minimum ([2]; 1 mm path length): 202 nm
- secondary structure / helicity [2]: possesses little helical structure even in 50% TFE

Substance: CCAUGUCCCUCUCAGCAGA[dT][dT] [COMMD4 siRNA, reference compound]
- γH2AX and MDC1 (DNA repair) foci (HBEC3-KT cells [3]): exhibited increased DNA repair foci
- γH2AX and MDC1 (DNA repair) foci (NSCLC cells): significantly more γH2AX and MDC1 foci
- sensitivity to ionising radiation (clonogenic viability) [4]: hypersensitive to IR compared to control siRNA treated cells
- sensitivity to ionising radiation (clonogenic viability) (HBEC3-KT cells [5]): neither hypersensitive to IR

Substance: SFVNDIFERI [H2BWTpep]
- EC50 (recombinant GST-COMMD4): 0.07 µM

From article PMC10703884, “Targeting the COMMD4–H2B protein complex in lung cancer” (British Journal of Cancer, 2023)
